# System: PUCR comprising 38C2 scFab expressed on the membrane of the NKL cells
# Experiment: Programming of PUCR on NKL cells with AZD-PEG8-biotin, detected with DTAF-conjugated streptavidin by FACS
# Assay type: cell-based
# Conditions: 1 μM or 10 μM, 4° C., 1 hour, PUCR-expressing vs wild-type NKL cells
# Excerpt: To generate constructs encoding a PUCR comprising humanized 38C2 scFab, a nucleic acid encoding the humanized 38C2 scFab was designed by fusing a nucleic acid encoding humanized 38C2 […] LC domain, a nucleic acid encoding a poly-GlySer linker, a nucleic acid encoding the humanized 38C2 VH domain, and a nucleic acid encoding the human gamma 1 HC constant domain 1. The resulting nucleic acid fragment was cloned into a retroviral vector to encode a PUCR comprising an N-terminal leader peptide, followed by the 38C2 scFab, followed by a hybrid CD8 and CD28 hinge, a CD28 transmembrane domain, a CD28 intracellular domain, and a CD3ζ intracellular domain. The nucleic acid and amino acid sequences of the PUCR are shown below. NKL cells were transduced with the viral vector encoding the PUCR.
# The PUCR comprising 38C2 scFab expressed on the membrane of the NKL cells was conjugated (i.e., programmed) with the specificity agent AZD-PEG8-biotin (see FIG. 11). […] AZD-PEG8-biotin comprises the reactivity moiety azetidinone which reacts with and forms a stable covalent bond with the reactive lysine of the 38C2 scFab within the PUCR. […] Fluorescence was measured using a ACEA Biosciences NovoCyte flow cytometer. Data was analyzed with FlowJo software, and DTAF-conjugated streptavidin binding was quantified by increased mean fluorescence intensity. […]
smiles,measurement,value
"O=C(CCCC[C@@H]1SC[C@@H]2NC(=O)N[C@@H]21)NCCOCCOCCOCCOCCOCCOCCNC(=O)CCOCCOCCC(=O)Nc1ccc(CCC(=O)N2CCC2=O)cc1 [AZD-PEG8-Biotin, 5-[(3aS,4S,6aR)-2-oxo-1,3,3a,4,6,6a-hexahydrothieno[3,4-d]imidazol-4-yl]-N-[2-[2-[2-[2-[2-[2-[2-[3-[2-[3-oxo-3-[4-[3-oxo-3-(2-oxoazetidin-1-yl)propyl]anilino]propoxy]ethoxy]propanoylamino]ethoxy]ethoxy]ethoxy]ethoxy]ethoxy]ethoxy]ethyl]pentanamide]","conjugation (programming) of PUCR, DTAF-conjugated streptavidin binding",successfully programmed

# — patent US20170112878A1, “PROGRAMMABLE UNIVERSAL CELL RECEPTORS AND METHOD OF USING THE SAME” (Sorrento Therapeutics, Inc., priority 2015, published 2017)
